Measurements taken from patent EP0171760A2, “Substituted phenoxypropylaminoethoxyphenoxyacetamides” (BEECHAM GROUP PLC, priority 1984, dated 1986).

Tests used:
[1] = test system: electrically paced left atrium; assay: Activity on isolated rat atria: tension of electrically paced left atrium; set-up: species or system Sprague-Dawley male rats; settings: 32°C; for Emax: maximal effect with respect to isoprenaline maximum (isoprenaline 10^-7M = 1), Krebs solution, read-out: Tension Intrinsic activity; for EC50: molar concentration producing 50% of the compound's own maximum response
Description: (§1) Sprague-Dawley male rats (300-400 g) are killed and the right and left atria dissected out independently and mounted on a combined tissue holder/electrode. The tissues are then immersed in a glass bath containing Krebs solution maintained at 32°C. The rate of the spontaneously beating right atrium (via an isometric transducer and a ratemeter) and the tension of the electrically paced left atrium (via an isometric transducer)are recorded on a M19 chart recorder.
(§2) After an initial stabilization period, the tissues are exposed to a maximal concentration of isoprenaline (10^-7M). The tissues are then washed several times until rate and tension return to baseline level. A dose-response curve to the test compound is then carried out.
(§3) Responses to each concentration of test compound are expressed as a percentage of the maximal responses to isoprenaline. Results are given in the form of (a) intrinsic activity (maximal effect of test compound with respect to isoprenaline maximum, i.e. isoprenaline intrinsic activity = 1) and (b) EC50 (the molar concentration at which the test compound produces 50% of its own maximum response).

[2] = test system: spontaneously beating right atrium; assay: Activity on isolated rat atria: rate of spontaneously beating right atrium; set-up: species or system Sprague-Dawley male rats; settings: 32°C; for Emax: maximal effect with respect to isoprenaline maximum (isoprenaline 10^-7M = 1), Krebs solution, read-out: Rate Intrinsic activity; for EC50: molar concentration producing 50% of the compound's own maximum response
Description: as §1, §2, §3

[3] = test system: left ventricular pressure (LVP); assay: Assessment of inotropic activity in conscious cats; assay type: in vivo; settings: 0.2 mg/kg p.o., gelatin capsule, recording 6 hours post dosing
Description: Male 3-4.5 kg cats, bred in-house, are implanted with a polythene cannula in the left ventricle which is exte- riorised at the back of the neck by means of a small teflon valve. Recordings are made via a pressure transducer attached by means of a length of polyethylene tubing to the cat neck valve.
During an initial 1 hour stabilisation period, steady baseline recordings are obtained. The test compound, contained in a gelatin capsule, is then administered orally. Recording is normally carried out for 6 hours post dosing.
The maximal percentage change in dp/dt over initial baseline level is used as the index of inotropic activity. Chronotropic activity is taken as the maximal percentage change in HR over initial baseline level.

EC50 [1] [nM] | EC50 [2] [nM] | Structure (SMILES) | Emax [1] [%] | Emax [2] [%] | Peak HR ([3]; maximal percentage change in HR over initial baseline (chronotropic activity)) [%] | Peak dp/dt ([3]; maximal percentage change in dp/dt over initial baseline (inotropic activity)) [%]
25 | 10 | CNC(=O)COc1ccc(OCC(C)NCC(O)COc2ccc(O)cc2)cc1 (stereo not shown) [Example 1, N-methyl 4-[2-[3-(4-hydroxyphenoxy)-2-hydroxypropylamino]-2-methylethoxy]phenoxyacetamide] | 88 | 94 | 0 | 22
150 | 68 | CNC(=O)COc1ccc(OCCNCC(O)COc2ccc(O)cc2)cc1 (stereo not shown) [Example 2, N-methyl 4-[2-[3-(4-hydroxyphenoxy)-2-hydroxypropylamino]ethoxy]-phenoxyacetamide] | 61 | 77 |  | 
